Data published in US9682928B2 (NeuroPro Therapeutics, Inc., priority 2009, dated 2017).
Like-named read-outs stand apart in the source and are kept apart here.

Tests used:
Sprague-Dawley rats = test: Kainic acid induced seizures in rats; format: in vivo, rat; set-up: key to Seizures Severity Mean ± SD (grade 0 to IV): seizure grade 0 = no response to IV = status epilepticus; details: 20 μmoles/kg IP; for Seizures Severity Mean ± SD (grade 0 to IV) / Seizures Mean ± SD (1 = yes, 0 = no): KA 15 mg/kg i.p.; for Seizures Mean ± SD (1 = yes, 0 = no): 2 hours; for change in vivo at 20 µmol/kg: Rattus norvegicus, 2 h, vs DMSO control
Procedure: Formulation of kainic acid was performed by NTS as a stock solution by reconstituting kainic acid with (100%) saline that was stored at 4° C. Vehicle control received saline solution. […] The research investigators were blinded to the treatment groups.
Solutions were prepared fresh daily just prior to use; dosing of all 10 rats with any given compound occurred on a single day after preparing the dosing solution. […] Unused remaining dosing solutions were stored frozen.
Animals were maintained in a temperature- and light-controlled environment in accord with the principles and procedures of the National Institutes of Health Guidelines for Care and Use of Laboratory Animals. Seizures were induced in adult, male Sprague-Dawley rats (260-300 g) by injection of KA (15 mg/kg, i.p.). In addition, animals were injected with test compounds following kainic acid to determine the effects on protection from epilepsy. Animals were monitored behaviorally for seizures for 2 hours after injection.
Seizure activity was initially characterized as either yes (1) or no (0) within a 2 hour period following injection of KA. A seizure severity grade was assigned based on the maximal response achieved on a scale from 0 to IV as follows: 0, no response; I, single limb clonus and scratching; II, multiple limb clonus and staggering gait; […], limb clonus, tonic extension of limbs and falling; IV, continuous grade III seizures for longer than 30 min (status epilepticus).
The results were expressed as the mean±standard deviation (SD). The significance of difference in the epileptic data was analyzed using a one-way analysis of variance (ANOVA) followed by Fisher's post hoc test. Repeated-measures ANOVA were computed on the monitoring data and the significance of the difference among groups were evaluated by Fisher's post hoc test.
All groups were subjected to kainic acid.
The induction of seizures in rats with kainic acid was determined as either yes seizures (1) or no seizures (0).

Na+K+Cl− co-transporter = biological target: T1, Na+K+Cl− co-transporter (Rattus norvegicus, UniProt E9PTX9); test: Na+K+Cl− cotransporter assay, 86Rb uptake in A7r5 cells; format: cell-based; details: 10 minutes at 37° C.; for inhibition at 10 µM: read-out: % Inhibition of Control Values; for remaining activity at 10 µM: read-out: % of Control Value; for % Inhibition of Control Values / % of Control Value: 10 μM
T1 construct: endogenous in cells; host or cells: A7r5 cells
T1 sequence (E9PTX9 1-1203): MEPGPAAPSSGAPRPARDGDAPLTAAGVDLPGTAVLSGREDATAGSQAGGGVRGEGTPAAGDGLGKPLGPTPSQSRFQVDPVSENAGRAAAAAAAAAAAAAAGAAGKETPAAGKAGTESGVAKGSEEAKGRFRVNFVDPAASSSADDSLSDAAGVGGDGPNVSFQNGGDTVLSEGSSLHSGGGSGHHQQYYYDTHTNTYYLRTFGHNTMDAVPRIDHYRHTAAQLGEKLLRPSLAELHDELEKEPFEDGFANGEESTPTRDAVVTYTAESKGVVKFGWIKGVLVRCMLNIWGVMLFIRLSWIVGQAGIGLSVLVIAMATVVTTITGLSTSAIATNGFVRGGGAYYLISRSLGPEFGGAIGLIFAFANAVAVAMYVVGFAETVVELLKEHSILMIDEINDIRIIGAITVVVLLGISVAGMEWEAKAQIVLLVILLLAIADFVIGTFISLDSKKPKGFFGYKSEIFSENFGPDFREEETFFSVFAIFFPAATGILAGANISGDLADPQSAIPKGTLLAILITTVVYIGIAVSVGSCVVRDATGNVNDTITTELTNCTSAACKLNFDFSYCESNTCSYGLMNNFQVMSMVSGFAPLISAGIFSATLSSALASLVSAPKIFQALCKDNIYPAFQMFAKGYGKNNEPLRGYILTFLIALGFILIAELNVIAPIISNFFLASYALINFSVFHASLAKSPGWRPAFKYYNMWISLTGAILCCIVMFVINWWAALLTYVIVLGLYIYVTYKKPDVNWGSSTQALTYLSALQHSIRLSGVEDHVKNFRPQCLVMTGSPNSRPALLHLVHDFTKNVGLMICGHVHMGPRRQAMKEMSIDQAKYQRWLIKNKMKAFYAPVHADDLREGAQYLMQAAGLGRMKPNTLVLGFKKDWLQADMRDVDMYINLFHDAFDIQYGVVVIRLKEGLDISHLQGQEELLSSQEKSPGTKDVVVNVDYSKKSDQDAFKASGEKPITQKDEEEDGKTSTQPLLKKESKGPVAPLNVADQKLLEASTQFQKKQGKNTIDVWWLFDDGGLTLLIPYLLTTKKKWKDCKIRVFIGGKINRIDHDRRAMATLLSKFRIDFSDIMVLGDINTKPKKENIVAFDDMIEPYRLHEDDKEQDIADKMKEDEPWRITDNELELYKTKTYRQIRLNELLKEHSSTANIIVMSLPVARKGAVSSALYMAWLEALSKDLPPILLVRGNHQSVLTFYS
Procedure: Na^+K^+Cl^− co-transporter activity was measured in vitro in A7r5 cells by measuring their uptake of ^86Rb (0.2 μCi) in 10 minutes at 37° C. as detected by scintillation counting. See Chassande, et al. (1988) “The Na^+/K^+/Cl^− Cotransport in C6 glioma cells. Properties and role in volume regulation.” Eur. J. Biochem. 171: 425433.

[1] = read-out: Percent reduction in Seizures
[2] = read-out: Percent reduction in Seizures Severity

Row | Structure (SMILES) | % Inhibition of Control Values (Na+K+Cl− co-transporter) [%] | % of Control Value (Na+K+Cl− co-transporter) [%] | further results
1 | OC[C@@H](O)[C@@H](O)[C@H](O)[C@H](O)CO [Mannitol, reference compound] |  |  | Seizures Severity Mean ± SD (grade 0 to IV) (Sprague-Dawley rats): 0.5000 ± 0.7071; Seizures Mean ± SD (1 = yes, 0 = no) (Sprague-Dawley rats): 0.4000 ± 0.5164; change in vivo at 20 µmol/kg (Sprague-Dawley rats; [1]): -55.5%; change in vivo at 20 µmol/kg (Sprague-Dawley rats; [2]): -79.2%
2 | CCCCNc1cc(C(=O)N(CC)CC)cc(S(N)(=O)=O)c1Oc1ccccc1 [NTP-2007, N,N-Diethyl 3-Aminosulfonyl-5-butylamino-4-phenoxybenzamide] |  |  | Seizures Severity Mean ± SD (grade 0 to IV) (Sprague-Dawley rats): 1.500 ± 1.354; Seizures Mean ± SD (1 = yes, 0 = no) (Sprague-Dawley rats): 0.6000 ± 0.5164; change in vivo at 20 µmol/kg (Sprague-Dawley rats; [1]): -33.3%; change in vivo at 20 µmol/kg (Sprague-Dawley rats; [2]): -37.5%; inhibition at 10 µM (Na+K+Cl− co-transporter): 30%; remaining activity at 10 µM (Na+K+Cl− co-transporter): 70.4%
3 | CCCCNc1cc(C(=O)N(C)C)cc(S(N)(=O)=O)c1Oc1ccccc1 [NTP-2015, N,N-Dimethyl 3-Aminosulfonyl-5-N-butylamino-4-phenoxybenzamide] |  |  | Seizures Severity Mean ± SD (grade 0 to IV) (Sprague-Dawley rats): 1.100 ± 1.197; Seizures Mean ± SD (1 = yes, 0 = no) (Sprague-Dawley rats): 0.5000 ± 0.5270; change in vivo at 20 µmol/kg (Sprague-Dawley rats; [1]): -44.4%; change in vivo at 20 µmol/kg (Sprague-Dawley rats; [2]): -54.2%
4 | CCCCNc1cc(C(=O)N[C@H](C)c2ccccc2)cc(S(N)(=O)=O)c1Oc1ccccc1 [NTP-2020, (R)-α-Methylbenzyl 3-Aminosulfonyl-5-N-butylamino-4-phenoxybenzamide] | 7 | 93.5 | 
5 | CCCCNc1cc(C(=O)N[C@@H](C)c2ccccc2)cc(S(N)(=O)=O)c1Oc1ccccc1 [NTP-2021, (S)-α-Methylbenzyl 3-Aminosulfonyl-5-N-butylamino-4-phenoxybenzamide] | 27 | 72.6 | 
6 | CCCCNc1cc(C(=O)N2CCCC2)cc(S(N)(=O)=O)c1Oc1ccccc1 [NTP-2022, N-Pyrrolidinyl Aminosulfonyl-5-N-butylamino-4-phenoxybenzamide] |  |  | Seizures Severity Mean ± SD (grade 0 to IV) (Sprague-Dawley rats): 1.100 ± 1.101; Seizures Mean ± SD (1 = yes, 0 = no) (Sprague-Dawley rats): 0.6000 ± 0.5164; change in vivo at 20 µmol/kg (Sprague-Dawley rats; [1]): -33.3%; change in vivo at 20 µmol/kg (Sprague-Dawley rats; [2]): -54.2%; inhibition at 10 µM (Na+K+Cl− co-transporter): 7%; remaining activity at 10 µM (Na+K+Cl− co-transporter): 92.7%
7 | CCCCNc1cc(C(=O)NCCCN(C)C)cc(S(N)(=O)=O)c1Oc1ccccc1 [NTP-2025] |  |  | inhibition at 10 µM (Na+K+Cl− co-transporter): -27%; remaining activity at 10 µM (Na+K+Cl− co-transporter): 127%
8 | CCCCNc1cc(C(=O)OCC=C(C)C)cc(S(N)(=O)=O)c1Oc1ccccc1 [NTP-2029, 3-Methylbut-2-enyl Aminosulfonyl-5-N-butylamino-4-phenoxybenzoate] | 12 | 88.4 | 
9 | CCCCNc1cc(C(=O)OCc2ccc(OC)cc2)cc(S(N)(=O)=O)c1Oc1ccccc1 [NTP-2031, 4-Methoxybenzyl Aminosulfonyl-5-N-butylamino-4-phenoxybenzoate] | 7 | 92.6 | 

Second part, led by results:

Row | % Inhibition of Control Values (Na+K+Cl− co-transporter) [%] | % of Control Value (Na+K+Cl− co-transporter) [%] | Structure (SMILES) | further results
10 | −7 | 107.2 | CCCCNc1cc(C(=O)NC)cc(S(N)(=O)=O)c1Oc1ccccc1 [NTP-2016, N-Methyl 3-Aminosulfonyl-5-N-butylamino-4-phenoxybenzamide] | 
11 | 13 | 87.3 | CCCCNc1cc(C(=O)NCc2ccccc2)cc(S(N)(=O)=O)c1Oc1ccccc1 [NTP-2018, N-Benzyl 3-Aminosulfonyl-5-N-butylamino-4-phenoxybenzamide] | 
12 | 23 | 77.3 | CCCCNc1cc(C(=O)NN2CCCCC2)cc(S(N)(=O)=O)c1Oc1ccccc1 [NTP-2023, N-Piperidinyl 3-Aminosulfonyl-5-N-butylamino-4-phenoxybenzamide] | 
13 | 16 | 84.4 | CCCCCCCCCCOC(=O)c1cc(NCCCC)c(Oc2ccccc2)c(S(N)(=O)=O)c1 [NTP-2028, n-Decyl Aminosulfonyl-5-N-butylamino-4-phenoxybenzoate] | 
14 | 21 | 78.9 | CCCCNc1cc(C(=O)OCCCCc2ccccc2)cc(S(N)(=O)=O)c1Oc1ccccc1 [NTP-2034, 4-phenylbutyl 3-Aminosulfonyl-5-N-butylamino-4-phenoxybenzoate] | 
15 | 26 | 74.5 | CCCCNc1cc(C(=O)O[C@H](C)c2ccccc2)cc(S(N)(=O)=O)c1Oc1ccccc1 [NTP-2035, (R)-α-Methylbenzyl 3-Aminosulfonyl-5-N-butylamino-4-phenoxybenzoate] | 
16 | 20 | 80.1 | CCCCNc1cc(C(=O)O[C@@H](C)c2ccccc2)cc(S(N)(=O)=O)c1Oc1ccccc1 [NTP-2036, (S)-α-Methylbenzyl 3-Aminosulfonyl-5-N-butylamino-4-phenoxybenzoate] | 
